Results on 1 compound are retold here after patent US6352718B1, “Vasopressin antagonist formulation and process” (American Cyanamid Company, priority 1999, dated 2002).

The series in a line: Solubility in orally acceptable oils and aqueous systems. The note with it: in conventional, orally acceptable oils, such as safflower or sesame seed oils, and in aqueous systems. It counts as physicochemical.

Consider `Cc1ccc(F)cc1C(=O)Nc1ccc(C(=O)N2Cc3cccn3Cc3ccccc32)c(Cl)c1` [VPA-985, N-[4-(5H-pyrrolo[2,1-c][1,4]benzodiazepin-10(11H)ylcarbonyl)-3-chlorophenyl]-5-fluoro-2-methylbenzamide], for which the solubility result was “highly insoluble”.
